# Data from patent US20240024273A1, “TOPICAL ADMINISTRATION OF 2-(DIETHYLAMINO)ETHYL 2-(4-ISOBUTYLPHENYL)PROPRIONATE FOR TREATMENT OF DISEASES” (TECHFIELDS PHARMA CO., LTD., priority 2020, published 2024).
# Tested on: Subjects with Osteoarthritis of the Knee
# Experiment: Second Phase 2 study: safety (treatment-emergent adverse events)
# Type: in vivo, human
# Settings: Oral Ibuprofen 3 × 400 mg, N = 71
# Source text: Safety assessments will be performed at each visit and will include assessment of AEs, vital signs (blood pressure, pulse rate, and oral temperature), clinical laboratories, physical examination, skin irritation, and electrocardiograms (ECGs) as indicated in the study flow chart, Table 47.
# Safety assessments will include AEs, vital signs (blood pressures, pulse rate, and oral temperature), clinical laboratories, physical examination, skin irritation, and ECGs at various time points during the study as indicated in the study flow chart.
# Adverse events of interest include: local skin reactions around the treated knee(s), upper stomach pain, GI bleeding, serious cardiovascular side effects (e.g., thrombotic events, myocardial infarction, or stroke), jaundice, elevated liver function tests, and nausea.
# Safety analyses will be conducted on the SAS. Safety parameters will be listed and summarized using standard descriptive statistics, as appropriate. No formal statistical analyses are planned.
compound,measurement,value
"CC(C)Cc1ccc(C(C)C(=O)O)cc1 (stereo not shown) [Ibuprofen, 2-(4-isobutylphenyl)propionic acid, reference compound]",Infections and Infestations: number of adverse events,32
same,Metabolism and Nutrition Disorders: number of adverse events,8
same,Metabolism and Nutrition Disorders: percentage of subjects with adverse events,11.3%
same,Metabolism and Nutrition Disorders: subjects with adverse events,8
same,Tooth Infection: number of adverse events,3
same,Urinary Tract Infection: number of adverse events,11
same,"Urinary Tract Infection: subjects with adverse events, number (percentage)",10(14.1%)
